From ChEMBL document CHEMBL1201862, “PubChem BioAssay data set” (2004)
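Assay format: 96-well plates, 48-hour exposure. Abbreviation: GI50, concentration required for 50% inhibition of growth.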 Active and inactive are the calls of the source. No stated cut-off is given here; in the data, active = GI50 up to about 1.1 µM and inactive = higher.

Tests used:
Assay in all cases: DTP human tumour cell line panel, 48 h
EKVX = tested on: EKVX
HCC 2998 = tested on: HCC 2998
Hs-578T = tested on: Hs-578T
SN12C = tested on: SN12C
HL-60 = tested on: HL-60
TK-10 = tested on: TK-10
MDA-MB-231 = tested on: MDA-MB-231
U-251 = tested on: U-251
M14 = tested on: M14
CAKI-1 = tested on: CAKI-1
MOLT-4 = tested on: MOLT-4
SF-268 = tested on: SF-268
T47D = tested on: T47D
NCI/ADR-RES = tested on: NCI/ADR-RES
UACC-257 = tested on: UACC-257
OVCAR-3 = tested on: OVCAR-3
HCT-116 = tested on: HCT-116
A549 = tested on: A549
OVCAR-8 = tested on: OVCAR-8
NCI-H226 = tested on: NCI-H226

For CCOC(=O)Cc1c(C(=O)OCC)[n+]([O-])c2cc(Cl)c(Cl)cc2[n+]1[O-], the GI50 (EKVX) was 3.37 µM (inactive), the GI50 (HCC 2998) was 1.99 µM (inactive) and the GI50 (Hs-578T) was 2.27 µM (inactive). For the same compound, the GI50 (SN12C) was 2.49 µM (inactive), the GI50 (HL-60) was 2.81 µM (inactive) and the GI50 (TK-10) was 1.28 µM (inactive). The GI50 (MDA-MB-231) was 2.69 µM (inactive), the GI50 (U-251) was 2.96 µM (inactive) and the GI50 (M14) was 2.29 µM (inactive). For the same compound, the GI50 (CAKI-1) was 2.97 µM (inactive), the GI50 (MOLT-4) was 1.56 µM (inactive) and the GI50 (SF-268) was 2.44 µM (inactive). The GI50 (T47D) was 0.982 µM (active), the GI50 (NCI/ADR-RES) was 2.78 µM (inactive) and the GI50 (UACC-257) was 2.22 µM (inactive). The GI50 (OVCAR-3) was 1.87 µM (inactive), the GI50 (HCT-116) was 1.77 µM (inactive) and the GI50 (A549) was 1.76 µM (inactive). For the same compound, the GI50 (OVCAR-8) was 2.34 µM (inactive).
In the case of C#CCOC(=O)C(N)C(C)O (stereo not given), the GI50 (EKVX) is reported as > 100 µM (inactive), the GI50 (Hs-578T) is reported as > 100 µM (inactive) and the GI50 (SN12C) is reported as > 100 µM (inactive). For the same compound, the GI50 (HL-60) was > 100 µM (inactive), the GI50 (TK-10) was > 100 µM (inactive) and the GI50 (MDA-MB-231) was > 100 µM (inactive). The GI50 (NCI-H226) was > 100 µM (inactive), the GI50 (U-251) was > 100 µM (inactive) and the GI50 (M14) was > 100 µM (inactive). For the same compound, the GI50 (CAKI-1) was > 100 µM (inactive), the GI50 (MOLT-4) was > 100 µM (inactive) and the GI50 (SF-268) was > 100 µM (inactive). For the same compound, the GI50 (T47D) was > 100 µM (inactive), the GI50 (NCI/ADR-RES) was > 100 µM (inactive) and the GI50 (UACC-257) was > 100 µM (inactive). The GI50 (OVCAR-3) was > 100 µM (inactive), the GI50 (HCT-116) was > 100 µM (inactive) and the GI50 (A549) was > 100 µM (inactive). For the same compound, the GI50 (OVCAR-8) was > 100 µM (inactive).
CC(C)(C)C(=O)C(N)C(=O)C(C)(C)C was tested, and the GI50 (HCC 2998) was > 100 µM (inactive), the GI50 (Hs-578T) was > 100 µM (inactive) and the GI50 (SN12C) was > 100 µM (inactive). For the same compound, the GI50 (HL-60) was > 100 µM (inactive), the GI50 (TK-10) was > 100 µM (inactive) and the GI50 (MDA-MB-231) was > 100 µM (inactive). The GI50 (U-251) was > 100 µM (inactive), the GI50 (M14) was > 100 µM (inactive) and the GI50 (CAKI-1) was > 100 µM (inactive). The GI50 (MOLT-4) was 9.57 µM (inactive), the GI50 (SF-268) was > 100 µM (inactive) and the GI50 (T47D) was > 100 µM (inactive). For the same compound, the GI50 (NCI/ADR-RES) was > 100 µM (inactive), the GI50 (UACC-257) was > 100 µM (inactive) and the GI50 (HCT-116) was > 100 µM (inactive). For the same compound, the GI50 (A549) was > 100 µM (inactive) and the GI50 (OVCAR-8) was > 100 µM (inactive).
For Nc1cc(N)c(/N=N/c2cccc3c(S(=O)(=O)O)cccc23)cc1/N=N/c1cc([N+](=O)[O-])ccc1O, the GI50 (EKVX) was > 100 µM (inactive), the GI50 (HCC 2998) was 23.2 µM (inactive) and the GI50 (Hs-578T) was 36.8 µM (inactive). For the same compound, the GI50 (SN12C) was 32.3 µM (inactive), the GI50 (TK-10) was 47 µM (inactive) and the GI50 (MDA-MB-231) was 14.6 µM (inactive). For the same compound, the GI50 (U-251) was 13.7 µM (inactive), the GI50 (M14) was 26.1 µM (inactive) and the GI50 (CAKI-1) was 23.6 µM (inactive). For the same compound, the GI50 (MOLT-4) was 20.3 µM (inactive), the GI50 (SF-268) was 6.62 µM (inactive) and the GI50 (T47D) was 38.8 µM (inactive). For the same compound, the GI50 (NCI/ADR-RES) was 21.9 µM (inactive), the GI50 (UACC-257) was 26.3 µM (inactive) and the GI50 (OVCAR-3) was 9.08 µM (inactive). For the same compound, the GI50 (HCT-116) was 32.7 µM (inactive), the GI50 (A549) was 25.5 µM (inactive) and the GI50 (OVCAR-8) was 23.4 µM (inactive).
CC1ON2CCCC2[C@H]1C(=O)N1C2CC3CCC2(CS1(=O)=O)C3(C)C (stereo not given in full) was tested, and the GI50 (EKVX) was > 100 µM (inactive), the GI50 (Hs-578T) was > 100 µM (inactive) and the GI50 (SN12C) was > 100 µM (inactive). For the same compound, the GI50 (HL-60) was > 100 µM (inactive), the GI50 (TK-10) was > 100 µM (inactive) and the GI50 (MDA-MB-231) was > 100 µM (inactive). For the same compound, the GI50 (NCI-H226) was > 100 µM (inactive), the GI50 (U-251) was > 100 µM (inactive) and the GI50 (M14) was > 100 µM (inactive). For the same compound, the GI50 (CAKI-1) was > 100 µM (inactive), the GI50 (MOLT-4) was > 100 µM (inactive) and the GI50 (SF-268) was > 100 µM (inactive). The GI50 (T47D) was > 100 µM (inactive), the GI50 (NCI/ADR-RES) was > 100 µM (inactive) and the GI50 (UACC-257) was > 100 µM (inactive). The GI50 (OVCAR-3) was > 100 µM (inactive), the GI50 (HCT-116) was > 100 µM (inactive) and the GI50 (A549) was > 100 µM (inactive). The GI50 (OVCAR-8) was > 100 µM (inactive).
For C[C@H](N)C(=O)N[C@@H]1[C@H]2C(=C(O)C[C@@H](O)[C@@H]2O)C(=O)O[C@]1(C)C(Cl)Cl [BACTOBOLIN], the GI50 (EKVX) was 0.207 µM (active), the GI50 (HCC 2998) was 0.164 µM (active) and the GI50 (Hs-578T) was 0.125 µM (active). The GI50 (SN12C) was 0.164 µM (active), the GI50 (TK-10) was 0.356 µM (active) and the GI50 (MDA-MB-231) was 0.156 µM (active). For the same compound, the GI50 (NCI-H226) was 0.195 µM (active), the GI50 (U-251) was 0.144 µM (active) and the GI50 (M14) was 0.128 µM (active). For the same compound, the GI50 (CAKI-1) was 0.166 µM (active), the GI50 (SF-268) was 0.184 µM (active) and the GI50 (T47D) was 0.209 µM (active). The GI50 (NCI/ADR-RES) was 3.36 µM (inactive), the GI50 (UACC-257) was 0.378 µM (active) and the GI50 (OVCAR-3) was 0.34 µM (active). The GI50 (HCT-116) was 0.145 µM (active), the GI50 (A549) was 0.187 µM (active) and the GI50 (OVCAR-8) was 0.167 µM (active).
